# Source: ChEMBL document CHEMBL1145414, “Candidaspongiolides, distinctive analogues of tedanolide from sponges of the genus Candidaspongia” (2007)
# Test: Cytotoxicity against NCI60 cells
# Type: functional
# Conditions: Homo sapiens
row,SMILES,GI50 [ng/mL]
1,C/C=C\[C@H](C)[C@H]1O[C@@]1(C)[C@@H](O)[C@H]1COC(=O)[C@H](O)[C@@H](OC)[C@H](C)C(=O)[C@H](C)[C@@H](O)/C(C)=C/[C@H](C)C(=O)CC[C@@H](C)C1=O,0.09
2,"C/C=C\[C@H](C)[C@H]1OC1(C)[C@@H](O)[C@H]1COC(=O)[C@H](O)[C@@H](OC)[C@H](C)C(=O)[C@H](C)[C@@H](OC(C)=O)/C(C)=C/[C@H](C)C(=O)C[C@H](O)[C@@](O)(CO)C1=O (single isomer, unassigned)",42
